The supplement of paper PMC10307832

Legend:
Assay in all cases: relative viability (nuclei count vs DMSO), 5 days (fraction); higher = more cells survive
Wnt-C59 + Linsitinib = compound: CC1=NC=CC(=C1)C2=CC=C(C=C2)CC(=O)NC3=CC=C(C=C3)C4=CN=CC=C4 [Wnt-C59] + C[C@]1(O)C[C@@H](c2nc(-c3ccc4ccc(-c5ccccc5)nc4c3)c3c(N)nccn32)C1 [Linsitinib] (partner 1 µM)
Method in brief: (§1)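 Dosing by pin tool came one day after lung cancer cell lines were seeded in 1536-well plates, using either one drug or a fixed anchor-drug dose plus five library-drug doses (not always all listed) in √10 steps. After 5 days, nuclei were counted on 4× images. Relative viability is treated-well nuclei count divided by vehicle-well nuclei count, and values are medians of duplicate plates.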

Lapatinib + Dasatinib = compound: CS(=O)(=O)CCNCc1ccc(-c2ccc3ncnc(Nc4ccc(OCc5cccc(F)c5)c(Cl)c4)c3c2)o1 [Lapatinib] + Cc1nc(Nc2ncc(C(=O)Nc3c(C)cccc3Cl)s2)cc(N2CCN(CCO)CC2)n1 [Dasatinib] (partner 0.075 µM)
Method in brief: as §1

Wnt-C59 + Vorinostat = compound: CC1=NC=CC(=C1)C2=CC=C(C=C2)CC(=O)NC3=CC=C(C=C3)C4=CN=CC=C4 [Wnt-C59] + O=C(CCCCCCC(=O)Nc1ccccc1)NO [Vorinostat] (partner 1 µM)
Method in brief: as §1

Wnt-C59 + Palbociclib = compound: CC1=NC=CC(=C1)C2=CC=C(C=C2)CC(=O)NC3=CC=C(C=C3)C4=CN=CC=C4 [Wnt-C59] + CC(=O)c1c(C)c2cnc(Nc3ccc(N4CCNCC4)cn3)nc2n(C2CCCC2)c1=O [Palbociclib] (partner 0.5 µM)
Method in brief: as §1

| Cell Line | relative viability (Wnt-C59 + Linsitinib; first compound 0.001 µM) | relative viability (Wnt-C59 + Linsitinib; first compound 0.01 µM) | relative viability (Wnt-C59 + Linsitinib; first compound 0.03162 µM) | relative viability (Wnt-C59 + Linsitinib; first compound 0.1 µM) | relative viability (Lapatinib + Dasatinib; first compound 0.02 µM) | relative viability (Lapatinib + Dasatinib; first compound 0.06325 µM) | relative viability (Lapatinib + Dasatinib; first compound 0.2 µM) | relative viability (Lapatinib + Dasatinib; first compound 0.6325 µM) | relative viability (Lapatinib + Dasatinib; first compound 2 µM) | relative viability (Wnt-C59 + Vorinostat; first compound 0.001 µM) | relative viability (Wnt-C59 + Vorinostat; first compound 0.01 µM) | relative viability (Wnt-C59 + Vorinostat; first compound 0.03162 µM) | relative viability (Wnt-C59 + Vorinostat; first compound 0.1 µM) | relative viability (Wnt-C59 + Palbociclib; first compound 0.001 µM) | relative viability (Wnt-C59 + Palbociclib; first compound 0.01 µM) | relative viability (Wnt-C59 + Palbociclib; first compound 0.03162 µM) | relative viability (Wnt-C59 + Palbociclib; first compound 0.1 µM) |
| --- | --- | --- | --- | --- | --- | --- | --- | --- | --- | --- | --- | --- | --- | --- | --- | --- | --- |
| NCI-H1651 | 1 | 0.9 | 1.02 | 0.852 | 0.443 | 0.284 | 0.386 | 0.476 | 0.406 | 0.557 | 0.6 | 0.597 | 0.63 | 0.526 | 0.499 | 0.452 | 0.479 |
| NCI-H1703 | 0.721 | 0.631 | 0.739 | 0.899 |  |  |  |  |  |  |  |  |  |  |  |  |  |
| NCI-H522 |  |  |  |  |  | 0.907 | 0.901 | 0.67 | 0.787 | 0.899 | 0.954 | 0.759 | 0.873 | 0.912 | 1.04 | 1.15 | 0.892 |
| HCC-366 | 0.697 | 0.582 | 0.717 | 0.595 |  | 0.493 | 0.572 | 0.722 | 0.544 | 0.338 | 0.2 | 0.309 | 0.335 | 0.461 | 0.376 | 0.402 | 0.386 |
| SK-LU-1 | 1.01 | 1.12 | 1.07 | 1.03 | 0.162 | 0.159 | 0.179 | 0.205 | 0.182 | 0.672 | 0.768 | 0.81 | 0.682 | 0.356 | 0.343 | 0.423 | 0.359 |
| NCI-H520 | 0.944 | 0.912 | 1.1 | 0.843 | 0.235 | 0.161 | 0.265 | 0.178 | 0.187 | 0.742 | 0.683 | 0.686 | 0.634 | 0.244 | 0.208 | 0.239 | 0.222 |
| NCI-H1437 | 1.01 | 1.01 | 1.04 | 1.01 | 0.28 | 0.245 | 0.382 | 0.304 | 0.345 | 0.838 | 0.806 | 0.829 | 0.8 | 0.31 | 0.309 | 0.336 | 0.335 |
| NCI-H460 | 0.789 | 0.809 | 0.869 | 0.7 | 0.496 | 0.345 | 0.372 | 0.624 | 0.452 | 0.688 | 0.711 | 0.743 | 0.648 | 0.185 | 0.145 | 0.207 | 0.147 |
| LK-2 | 0.529 | 0.708 | 0.563 | 0.582 |  |  | 0.264 | 0.283 | 0.35 | 0.441 | 0.295 | 0.3 | 0.233 | 0.524 | 0.739 | 0.705 | 0.535 |
| NCI-H358 | 0.83 | 0.641 | 0.923 | 0.682 | 0.138 | 0.0919 | 0.127 | 0.0982 | 0.14 | 0.803 | 0.589 | 0.8 | 0.65 | 0.134 | 0.128 | 0.153 | 0.1 |
| NCI-H2085 | 0.971 | 0.867 | 1.02 | 0.947 | 0.241 | 0.212 | 0.284 | 0.16 | 0.204 | 0.758 | 0.717 | 0.811 | 0.756 | 0.459 | 0.425 | 0.477 | 0.471 |
| NCI-H2405 | 1.03 |  | 0.887 | 0.875 | 0.215 | 0.181 | 0.208 | 0.164 | 0.232 | 1 | 1.05 | 1.15 | 1.17 | 0.516 | 0.506 | 0.498 | 0.473 |
| NCI-H1666 | 0.941 | 0.682 | 0.885 | 0.874 | 0.764 | 0.612 | 0.748 | 0.661 | 0.508 | 0.964 | 1 | 0.913 | 1.05 | 0.658 | 0.654 | 0.616 | 0.647 |
| NCI-H322M | 1.07 | 0.775 | 0.758 | 0.685 | 0.287 | 0.238 | 0.246 | 0.226 | 0.225 | 0.86 | 0.816 | 0.746 | 0.93 | 0.465 | 0.495 | 0.427 | 0.447 |
| NCI-H1563 | 1.24 | 1.2 | 1.34 | 1.13 | 0.505 | 0.405 | 0.425 | 0.491 | 0.435 |  |  |  |  |  |  |  |  |
| IA-LM | 0.67 | 0.549 | 0.621 | 0.533 |  |  |  |  |  | 0.934 | 0.906 |  | 0.939 |  |  |  |  |
| CAL-12T | 0.759 | 0.752 | 0.776 | 0.766 |  | 0.216 | 0.271 | 0.236 | 0.131 | 0.808 | 0.82 | 0.975 | 0.805 | 0.483 | 0.375 | 0.556 | 0.394 |
| NCI-H1395 | 0.972 | 1.06 | 1.09 | 1.03 | 0.43 | 0.39 | 0.375 | 0.439 | 0.425 | 0.724 | 0.675 | 0.564 | 1.1 | 0.598 | 0.652 | 0.566 | 0.573 |
| NCI-H3122 | 1.04 | 0.931 | 1.02 | 1.02 | 0.736 | 0.407 | 0.85 | 0.675 | 0.859 | 1.05 | 1.05 | 0.989 | 0.971 | 0.183 | 0.201 | 0.22 | 0.186 |
| HARA | 1.02 | 0.865 | 1.16 | 0.899 |  | 0.195 | 0.244 | 0.242 | 0.19 | 0.729 | 0.533 | 0.511 | 0.481 | 0.27 | 0.231 | 0.325 | 0.22 |
| EBC-1 | 0.927 | 0.912 | 0.925 | 0.814 |  |  |  |  |  |  |  |  |  |  |  |  |  |
| PC-3 [JPC-3] | 0.964 | 0.942 | 1.01 | 0.961 | 0.877 | 0.87 | 1 | 0.977 | 0.624 | 0.781 | 0.917 | 0.785 | 1.13 | 0.498 | 0.532 | 0.505 | 0.512 |
